Data: ChEMBL document CHEMBL4308851, “Alkyl-guanidine Compounds as Potent Broad-Spectrum Antibacterial Agents: Chemical Library Extension and Biological Characterization” (J Med Chem, 2018)
Converted amounts (≈) assume the structure as drawn.

Legend:
Staphylococcus aureus = test: Antibacterial activity against Staphylococcus aureus ATCC 25923 after 18 hrs by microdilution broth method; type: functional; settings: ATCC 25923, 18 h
Pseudomonas aeruginosa = test: Antibacterial activity against Pseudomonas aeruginosa ATCC 27853 after 18 hrs by microdilution broth method; type: functional; settings: ATCC 27853, 18 h
Bacillus spizizenii = test: Antibacterial activity against Bacillus subtilis ATCC 6633 after 18 hrs by microdilution broth method; type: functional; settings: ATCC 6633, 18 h
Enterococcus faecalis = test: Antibacterial activity against Enterococcus faecalis ATCC 19433 after 18 hrs by microdilution broth method; type: functional; settings: ATCC 19433, 18 h
Escherichia coli = test: Antibacterial activity against Escherichia coli CCUG after 18 hrs by microdilution broth method
Klebsiella pneumoniae [1] = test: Antibacterial activity against Klebsiella pneumoniae ATCC […] after 18 hrs by microdilution broth method; type: functional
Acinetobacter baumannii = test: Antibacterial activity against Acinetobacter baumannii ATCC 17978 after 18 hrs by microdilution broth method; type: functional; settings: ATCC 17978, 18 h
Streptococcus pyogenes = test: Antibacterial activity against Streptococcus pyogenes ATCC 12344 after 18 hrs by microdilution broth method; type: functional; settings: ATCC 12344, 18 h
Burkholderia cepacia = test: Antibacterial activity against Burkholderia cepacia isolate SI-R2 after 18 hrs by microdilution broth method; type: functional; settings: isolate SI-R2, 18 h
Klebsiella pneumoniae [2] = test: Antibacterial activity against Klebsiella pneumoniae isolate SI-081 after 18 hrs by microdilution broth method; type: functional; settings: isolate SI-081, 18 h
[3] = system: Stenotrophomonas maltophilia; test: Antibacterial activity against Stenotrophomonas maltophilia isolate 634/08 after 18 hrs by microdilution broth method; type: functional; settings: isolate 634/08, 18 h
Enterobacter cloacae = test: Antibacterial activity against Enterobacter cloacae isolate VA-417/02 after 18 hrs by microdilution broth method; type: functional; settings: isolate VA-417/02, 18 h

Row | MIC (Staphylococcus aureus) [µg/mL] | MIC (Pseudomonas aeruginosa) [µg/mL] | MIC (Bacillus spizizenii) [µg/mL] | MIC (Enterococcus faecalis) [µg/mL] | MIC (Escherichia coli) [µg/mL] | MIC (Klebsiella pneumoniae [1]) [µg/mL] | MIC (Acinetobacter baumannii) [µg/mL] | MIC (Streptococcus pyogenes) [µg/mL] | MIC (Burkholderia cepacia) [µg/mL] | MIC (Klebsiella pneumoniae [2]) [µg/mL] | MIC [3] [µg/mL] | MIC (Enterobacter cloacae) [µg/mL] | Compound
1 | 2 (≈ 2.08 µM) | 16 (≈ 16.7 µM) | 2 (≈ 2.08 µM) | 4 (≈ 4.17 µM) | 4 (≈ 4.17 µM) | 4 (≈ 4.17 µM) | 8 (≈ 8.34 µM) | 2 (≈ 2.08 µM) | – | – | – | – | CNC(=O)NC(=N)NCCCCCCCCN(CCCCCCCCNC(=N)NC(=O)NC)C(=O)N(CCCCCCCCNC(=N)NCC1CC1)CCCCCCCCNC(=N)NCC1CC1
2 | 1 (≈ 1.26 µM) | 16 (≈ 20.2 µM) | 1 (≈ 1.26 µM) | 1 (≈ 1.26 µM) | 2 (≈ 2.52 µM) | 2 (≈ 2.52 µM) | 16 (≈ 20.2 µM) | 0.5 (≈ 0.63 µM) | 32 (≈ 40.3 µM) | 4 (≈ 5.04 µM) | 16 (≈ 20.2 µM) | 4 (≈ 5.04 µM) | CCNC(=N)NCCCCCCCCN(CCCCCCCCNC(=N)N)C(=O)N(CCCCCCCCNC(=N)N)CCCCCCCCNC(=N)NCC
3 | 2 (≈ 2.18 µM) | 16 (≈ 17.4 µM) | 2 (≈ 2.18 µM) | 2 (≈ 2.18 µM) | 4 (≈ 4.36 µM) | 2 (≈ 2.18 µM) | 8 (≈ 8.72 µM) | 2 (≈ 2.18 µM) | 16 (≈ 17.4 µM) | 8 (≈ 8.72 µM) | 8 (≈ 8.72 µM) | 4 (≈ 4.36 µM) | N=C(N)NCCCCCCCCN(CCCCCCCCNC(=N)NCc1ccccc1)C(=O)N(CCCCCCCCNC(=N)N)CCCCCCCCNC(=N)NCc1ccccc1
4 | 8 (≈ 7.29 µM) | 8 (≈ 7.29 µM) | 4 (≈ 3.64 µM) | 4 (≈ 3.64 µM) | 4 (≈ 3.64 µM) | 4 (≈ 3.64 µM) | 16 (≈ 14.6 µM) | 1 (≈ 0.911 µM) | – | – | – | – | N=C(NCCCCCCCCN(CCCCCCCCNC(=N)NCc1ccccc1)C(=O)N(CCCCCCCCNC(=N)NCc1ccccc1)CCCCCCCCNC(=N)NCc1ccccc1)NCc1ccccc1
5 | 8 (≈ 9.46 µM) | 16 (≈ 18.9 µM) | 2 (≈ 2.37 µM) | 8 (≈ 9.46 µM) | 4 (≈ 4.73 µM) | 4 (≈ 4.73 µM) | 16 (≈ 18.9 µM) | 4 (≈ 4.73 µM) | – | – | – | – | N=C(N)NCCCCCCCCN(CCCCCCCCNC(=N)N)C(=O)N(CCCCCCCCNC(=N)NCC1CC1)CCCCCCCCNC(=N)NCC1CC1
6 | 32 (≈ 45.1 µM) | > 256 | 16 (≈ 22.6 µM) | 64 (≈ 90.3 µM) | 64 (≈ 90.3 µM) | 128 (≈ 181 µM) | 256 (≈ 361 µM) | 4 (≈ 5.64 µM) | – | – | – | – | CCNC(=N)NCCCCCCN(CCCCCCNC(=N)N)C(=O)N(CCCCCCNC(=N)NCC)CCCCCCNC(=N)NCC
7 | 2 (≈ 2.23 µM) | 128 (≈ 143 µM) | 4 (≈ 4.46 µM) | 8 (≈ 8.91 µM) | 4 (≈ 4.46 µM) | 4 (≈ 4.46 µM) | 64 (≈ 71.3 µM) | 1 (≈ 1.11 µM) | – | – | – | – | N=C(NCCCCCCCCN(CCCCCCCCNC(=N)NCC1CC1)C(=O)N(CCCCCCNC(=N)NCC1CC1)CCCCCCNC(=N)NCC1CC1)NCC1CC1
8 | 4 (≈ 5.46 µM) | 256 (≈ 349 µM) | 4 (≈ 5.46 µM) | 32 (≈ 43.6 µM) | 16 (≈ 21.8 µM) | 32 (≈ 43.6 µM) | 128 (≈ 175 µM) | 2 (≈ 2.73 µM) | – | – | – | – | N=C(N)NCCCCCCN(CCCCCCNC(=N)NCC1CC1)C(=O)N(CCCCCCNC(=N)N)CCCCCCNC(=N)NCC1CC1
9 | 4 (≈ 5.08 µM) | 128 (≈ 163 µM) | 4 (≈ 5.08 µM) | 16 (≈ 20.3 µM) | 8 (≈ 10.2 µM) | 16 (≈ 20.3 µM) | 64 (≈ 81.3 µM) | 2 (≈ 2.54 µM) | – | – | – | – | N=C(N)NCCCCCCN(CCCCCCNC(=N)NCC1CC1)C(=O)N(CCCCCCNC(=N)NCC1CC1)CCCCCCNC(=N)NCC1CC1

Row | Compound | MIC (Staphylococcus aureus) [µg/mL] | MIC (Pseudomonas aeruginosa) [µg/mL] | MIC (Bacillus spizizenii) [µg/mL] | MIC (Enterococcus faecalis) [µg/mL] | MIC (Escherichia coli) [µg/mL] | MIC (Klebsiella pneumoniae [1]) [µg/mL] | MIC (Acinetobacter baumannii) [µg/mL] | MIC (Streptococcus pyogenes) [µg/mL] | MIC (Burkholderia cepacia) [µg/mL] | MIC (Klebsiella pneumoniae [2]) [µg/mL] | MIC [3] [µg/mL] | MIC (Enterobacter cloacae) [µg/mL]
10 | CCCCCCCCCC(=O)N[C@@H](Cc1c[nH]c2ccccc12)C(=O)N[C@H](CC(N)=O)C(=O)N[C@@H](CC(=O)O)C(=O)N[C@@H]1C(=O)NCC(=O)N[C@@H](CCCN)C(=O)N[C@@H](CC(=O)O)C(=O)N[C@H](C)C(=O)N[C@@H](CC(=O)O)C(=O)NCC(=O)N[C@H](CO)C(=O)N[C@@H]([C@H](C)CC(=O)O)C(=O)N[C@@H](CC(=O)c2ccccc2N)C(=O)O[C@@H]1C | 0.5 (≈ 0.309 µM) | – | 1 (≈ 0.617 µM) | 1 (≈ 0.617 µM) | – | – | – | 0.12 (≈ 0.074 µM) | – | – | – | –
11 | CN[C@H](CC(C)C)C(=O)N[C@H]1C(=O)N[C@@H](CC(N)=O)C(=O)N[C@H]2C(=O)N[C@H]3C(=O)N[C@H](C(=O)N[C@H](C(=O)O)c4cc(O)cc(O)c4-c4cc3ccc4O)[C@H](O)c3ccc(c(Cl)c3)Oc3cc2cc(c3O[C@@H]2O[C@H](CO)[C@@H](O)[C@H](O)[C@H]2O[C@H]2C[C@](C)(N)[C@H](O)[C@H](C)O2)Oc2ccc(cc2Cl)[C@H]1O [VANCOMYCIN] | – | – | 0.5 (≈ 0.345 µM) | 1 (≈ 0.69 µM) | – | – | – | – | – | – | – | –
